Measurements taken from PubChem BioAssay AID1963860 (Molecular Pharmacology Branch, DTP, NCI, 2024).

Test system: CN0375-F725-PDC KRAS spheroid viability
Assay: Anticancer human tumor CN0375-F725-PDC patient-derived colon carcinoma cell line growth inhibition [KRAS2]
Conditions: spheroids with HUVEC and MSC; for IC50: curve of first compound; for viability, T/C: stronger effect = lower value
Procedure, shortened: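 Combination screen of spheroid viability in tumor-cell co-cultures with endothelial (HUVEC) and mesenchymal stem cell stroma. Each agent was tested in half-log dilutions, topping at clinical Cmax or at 10 microM without a known Cmax.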

[1] = second compound 0.0316 µM, first compound 0.0316 µM
[2] = second compound 0.0316 µM, first compound 0.1 µM
[3] = second compound 0.0316 µM, first compound 0.316 µM
[4] = second compound 0.0316 µM, first compound 1 µM
[5] = second compound 0.0316 µM, first compound 3.16 µM
[6] = second compound 0.1 µM, first compound 0.0316 µM
[7] = second compound 0.1 µM, first compound 0.1 µM
[8] = second compound 0.1 µM, first compound 0.316 µM
[9] = second compound 0.1 µM, first compound 1 µM
[10] = second compound 0.1 µM, first compound 3.16 µM
[11] = second compound 0.316 µM, first compound 0.0316 µM
[12] = second compound 0.316 µM, first compound 0.1 µM
[13] = second compound 0.316 µM, first compound 0.316 µM
[14] = second compound 0.316 µM, first compound 1 µM
[15] = second compound 0.316 µM, first compound 3.16 µM
[16] = second compound 1 µM, first compound 0.0316 µM
[17] = second compound 1 µM, first compound 0.1 µM
[18] = second compound 1 µM, first compound 0.316 µM
[19] = second compound 1 µM, first compound 1 µM
[20] = second compound 1 µM, first compound 3.16 µM
[21] = second compound 3.16 µM, first compound 0.0316 µM
[22] = second compound 3.16 µM, first compound 0.1 µM
[23] = second compound 3.16 µM, first compound 0.316 µM
[24] = second compound 3.16 µM, first compound 1 µM
[25] = second compound 3.16 µM, first compound 3.16 µM
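Further: spheroids exposed to agents for 7 days.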

Compound: CC1COCCN1c1cc(-c2ccnn2C)c2ccnc(-c3ccn[nH]3)c2n1 (stereo not given) + C=CC(=O)N1CCN(c2nc(OCC3CCCN3C)nc3c2CCN(c2cccc4cccc(C)c24)C3)CC1CC#N
- IC50 (second compound 0.0316 µM): > 3.16 µM
- IC50 (second compound 0.1 µM): > 3.16 µM
- IC50 (second compound 0.316 µM): > 3.16 µM
- IC50 (second compound 1 µM): > 3.16 µM
- IC50 (second compound 3.16 µM): < 0.01 µM
- viability, T/C (second compound 0.0316 µM, first compound 0.01 µM): 109%
- viability, T/C [1]: 94.6%
- viability, T/C [2]: 84.8%
- viability, T/C [3]: 84.6%
- viability, T/C [4]: 68.4%
- viability, T/C [5]: 57.2%
- viability, T/C (second compound 0.1 µM, first compound 0.01 µM): 99.8%
- viability, T/C [6]: 98.4%
- viability, T/C [7]: 81.4%
- viability, T/C [8]: 79.3%
- viability, T/C [9]: 65.7%
- viability, T/C [10]: 53.4%
- viability, T/C (second compound 0.316 µM, first compound 0.01 µM): 98%
- viability, T/C [11]: 93.4%
- viability, T/C [12]: 84.6%
- viability, T/C [13]: 78.5%
- viability, T/C [14]: 65.2%
- viability, T/C [15]: 55.6%
- viability, T/C (second compound 1 µM, first compound 0.01 µM): 88.1%
- viability, T/C [16]: 88.3%
- viability, T/C [17]: 75.1%
- viability, T/C [18]: 71%
- viability, T/C [19]: 66.5%
- viability, T/C [20]: 51%
- viability, T/C (second compound 3.16 µM, first compound 0.01 µM): 36.8%
- viability, T/C [21]: 35.9%
- viability, T/C [22]: 24.4%
- viability, T/C [23]: 25%
- viability, T/C [24]: 17.5%
- viability, T/C [25]: 20.5%

Compound: CCNC(=O)CC1N=C(c2ccc(Cl)cc2)c2cc(OC)ccc2-n2c(C)nnc21 (stereo not given) + C=CC(=O)N1CCN(c2nc(OCC3CCCN3C)nc3c2CCN(c2cccc4cccc(C)c24)C3)CC1CC#N
- IC50 (second compound 0.0316 µM): > 10 µM
- IC50 (second compound 0.1 µM): > 10 µM
- IC50 (second compound 0.316 µM): > 10 µM
- IC50 (second compound 1 µM): 6.11 µM
- IC50 (second compound 3.16 µM): < 0.0316 µM
- viability, T/C [1]: 97.8%
- viability, T/C [2]: 96.6%
- viability, T/C [3]: 83.2%
- viability, T/C [4]: 83%
- viability, T/C [5]: 69.3%
- viability, T/C (second compound 0.0316 µM, first compound 10 µM): 54%
- viability, T/C [6]: 101%
- viability, T/C [7]: 92.8%
- viability, T/C [8]: 81.4%
- viability, T/C [9]: 78.6%
- viability, T/C [10]: 67.2%
- viability, T/C (second compound 0.1 µM, first compound 10 µM): 53.2%
- viability, T/C [11]: 97.1%
- viability, T/C [12]: 88.6%
- viability, T/C [13]: 77.8%
- viability, T/C [14]: 75.1%
- viability, T/C [15]: 68.4%
- viability, T/C (second compound 0.316 µM, first compound 10 µM): 53.8%
- viability, T/C [16]: 88.1%
- viability, T/C [17]: 85.6%
- viability, T/C [18]: 73.3%
- viability, T/C [19]: 65.6%
- viability, T/C [20]: 60.1%
- viability, T/C (second compound 1 µM, first compound 10 µM): 43.4%
- viability, T/C [21]: 30.2%
- viability, T/C [22]: 28%
- viability, T/C [23]: 15.5%
- viability, T/C [24]: 1.05%
- viability, T/C [25]: 13.8%
- viability, T/C (second compound 3.16 µM, first compound 10 µM): 6.65%
